According to US10201546B2, “Quinolinyl modulators of RORγt” (Janssen Pharmaceutica NV, priority 2013, dated 2019):
Where a name gives a salt, the structure may show the parent alone. Read-outs that look alike come from different tables or passages of the source.

How the values were obtained:
[1] = biological target: human RORγt ligand binding domain (RORγt LBD) (Homo sapiens (Human), UniProt P51449); assay: RORγt ThermoFluor assay (thermal shift, binding affinity Kd)
[2] = biological target: human RORγt LBD fused to the DNA binding domain of the GAL4 protein (Homo sapiens (Human), UniProt P51449); assay: RORγt (LBD) reporter assay in HEK293T cells; type: cell-based; design: RORγt (LBD) Reporter Assay, % inhibition: dose or concentration left out as unconfirmed; conditions: for inhibition at 6 µM: HEK-293T, read-out: RORγt (LBD) Reporter Assay, % inhibition @ 6 μM, @ 6 μM
Chain of human RORγt LBD fused to the DNA binding domain of the GAL4 protein (P51449 258-518): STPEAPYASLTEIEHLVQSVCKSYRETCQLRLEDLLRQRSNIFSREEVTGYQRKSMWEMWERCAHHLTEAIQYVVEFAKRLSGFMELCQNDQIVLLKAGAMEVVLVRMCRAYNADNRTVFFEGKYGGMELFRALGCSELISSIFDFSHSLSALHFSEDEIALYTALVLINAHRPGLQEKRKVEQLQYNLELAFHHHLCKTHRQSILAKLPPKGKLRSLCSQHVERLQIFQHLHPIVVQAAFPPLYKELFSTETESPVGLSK

[3] = read-out: ThermoFluor Assay, Kd
[4] = read-out: ThermoFluor ® Assay, Kd

Chain of human RORγt ligand binding domain (RORγt LBD) (P51449 other isoform, or with tags, fused parts or gaps): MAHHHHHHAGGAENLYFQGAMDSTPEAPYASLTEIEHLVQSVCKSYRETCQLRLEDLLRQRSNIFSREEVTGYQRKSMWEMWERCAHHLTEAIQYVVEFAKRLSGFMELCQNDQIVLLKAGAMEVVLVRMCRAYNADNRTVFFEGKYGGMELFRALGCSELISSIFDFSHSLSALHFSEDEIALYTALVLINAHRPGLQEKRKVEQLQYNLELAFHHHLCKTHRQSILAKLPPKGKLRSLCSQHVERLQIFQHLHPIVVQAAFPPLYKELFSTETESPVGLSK

SMILES	Kd [1, 3] [nM]	IC50 [2] [nM]	inhibition at 6 µM [2] [%]	Kd [1, 4] [nM]	other results
COc1nc2ccc(C(O)(c3ccc(C)nc3C)c3cnnn3C)cc2c(Cl)c1OCCS(C)(=O)=O (single isomer, unassigned) [Example 70b, {4-Chloro-2-methoxy-3-[2-(methylsulfonyl)ethoxy]quinolin-6-yl}(2,6-dimethylpyridin-3-yl)(1-methyl-1H-1,2,3-triazol-5-yl)methanol]	2200	> 6000	28	–	–
COc1nc2ccc(C(O)(c3cnc(C)n3C)c3cnc(C)n3C)cc2c(Cl)c1OC1CCCN(C)C1 (single isomer, unassigned) [Example 51b, (4-Chloro-2-methoxy-3-{[1-methylpiperidin-3-yl]oxy}quinolin-6-yl)[bis(1,2-dimethyl-1H-imidazol-5-yl)]methanol]	3000	–	–	–	–
COc1nc2ccc(C(O)c3cnc(C)n3C)cc2c(Cl)c1OC(C)C (centres unmarked) [Example 156, (4-chloro-3-isopropoxy-2-methoxyquinolin-6-yl)(1,2-dimethyl-1H-imidazol-5-yl)methanol]	–	> 6000	–	3400	RORγt (LBD) Reporter Assay, % inhibition [2]: 34%
COc1nc2ccc(C(O)(c3ccccc3)C3CCN(C(C)=O)CC3)cc2c(Cl)c1CC1CCOCC1 (centres unmarked) [Example 4a, 1-(4-((4-Chloro-2-methoxy-3-((tetrahydro-2H-pyran-4-yl)methyl)quinolin-6-yl)(hydroxy)(phenyl)methyl)piperidin-1-yl)ethanone]	16	> 6000	24	–	–
COc1nc2ccc(C(O)(c3ccc(C)nc3C)c3cnnn3C)cc2c(Cl)c1C(=O)N(C)C (centres unmarked) [Example 148, 4-Chloro-6-[(2,6-dimethylpyridin-3-yl)(hydroxy)(1-methyl-1H-1,2,3-triazol-5-yl)methyl]-2-methoxy-N,N-dimethylquinoline-3-carboxamide]	–	–	–	1700	–
COc1nc2ccc(C(O)(c3ccc(C)nc3C)c3cnnn3C)cc2c(Cl)c1OCCS(C)(=O)=O (centres unmarked) [Example 70a, {4-Chloro-2-methoxy-3-[2-(methylsulfonyl)ethoxy]quinolin-6-yl}(2,6-dimethylpyridin-3-yl)(1-methyl-1H-1,2,3-triazol-5-yl)methanol]	3300	> 6000	36	–	–
COc1nc2ccc(C(O)(c3ccc(C)nc3C)c3cnnn3C)cc2c(Cl)c1C(=O)N1CC(F)(F)C1 (centres unmarked) [Example 153, {4-Chloro-3-[(3,3-difluoroazetidin-1-yl)carbonyl]-2-methoxyquinolin-6-yl}(2,6-dimethylpyridin-3-yl)(1-methyl-1H-1,2,3-triazol-5-yl)methanol]	–	–	–	3000	–
COc1nc2ccc(C(O)(c3ccc(C)nc3C)c3cnnn3C)cc2c(Cl)c1CC1CCS(=O)(=O)CC1 (single isomer, unassigned) [Example 2c, 4-((4-Chloro-6-((2,6-dimethylpyridin-3-yl)(hydroxy)(1-methyl-1H-1,2,3-triazol-5-yl)methyl)-2-methoxyquinolin-3-yl)methyl)tetrahydro-2H-thiopyran 1,1-dioxide]	–	–	–	–	Kd ([1]; ThermoFluor Assay, Kd): 110 nM
COc1nc2ccc(C(O)(c3ccc(C)nc3C)c3cnnn3C)cc2c(Cl)c1C(=O)NCC1CC1 (centres unmarked) [Example 147, 4-Chloro-N-(cyclopropylmethyl)-6-[(2,6-dimethylpyridin-3-yl)(hydroxy)(1-methyl-1H-1,2,3-triazol-5-yl)methyl]-2-methoxyquinoline-3-carboxamide]	–	–	–	930	–
COc1nc2ccc(C(O)(c3cnc(C)n3C)c3cnc(C)n3C)cc2c(Cl)c1CNC(=O)CC(F)(F)F [Example 185, N-((6-(Bis(1,2-dimethyl-1H-imidazol-5-yl)(hydroxy)methyl)-4-chloro-2-methoxyquinolin-3-yl)methyl)-3,3,3-trifluoropropanamide]	–	–	–	770	–
COc1nc2ccc(C(O)(c3ccc(C)nc3C)c3cnnn3C)cc2c(Cl)c1C(=O)NCC(F)(F)F (centres unmarked) [Example 152, 4-Chloro-6-[(2,6-dimethylpyridin-3-yl)(hydroxy)(1-methyl-1H-1,2,3-triazol-5-yl)methyl]-2-methoxy-N-(2,2,2-trifluoroethyl)quinoline-3-carboxamide]	–	–	–	600	–

Now from value to compound, other results behind:

Kd [1, 3] [nM]	IC50 [2] [nM]	inhibition at 6 µM [2] [%]	Kd [1, 4] [nM]	SMILES	other results
220	> 6000	26	–	COc1nc2ccc(C(O)(c3cncn3C)C3CCN(S(C)(=O)=O)CC3)cc2c(Cl)c1CC1CCOCC1 (centres unmarked) [Example 6a, (4-Chloro-2-methoxy-3-((tetrahydro-2H-pyran-4-yl)methyl)quinolin-6-yl)(1-methyl-1H-imidazol-5-yl)(1-(methylsulfonyl)piperidin-4-yl)methanol]	–
8200	> 6000	16	–	CC(=O)N1CCC(C(O)(c2ccc3nc(C(F)(F)F)c(C(=O)N4CCCCC4)c(C(F)(F)F)c3c2)c2cncn2C)CC1 (centres unmarked) [Example 9, 1-(4-(Hydroxy(1-methyl-1H-imidazol-5-yl)(3-(piperidine-1-carbonyl)-2,4-bis(trifluoromethyl)quinolin-6-yl)methyl)piperidin-1-yl)ethanone]	–
240	> 6000	17	–	COc1nc2ccc(C(O)(c3cncn3C)C3CCN(S(C)(=O)=O)CC3)cc2c(Cl)c1CC1CCOCC1 (single isomer, unassigned) [Example 6b, (4-Chloro-2-methoxy-3-((tetrahydro-2H-pyran-4-yl)methyl)quinolin-6-yl)(1-methyl-1H-imidazol-5-yl)(1-(methylsulfonyl)piperidin-4-yl)methanol]	–
27	> 6000	-32	–	Cn1cncc1C(O)(c1ccc(C(F)(F)F)nc1)c1ccc2nc(N3CCC3)c(OCc3ccccc3)c(Cl)c2c1 (centres unmarked) [Example 31, [2-Azetidin-1-yl-3-(benzyloxy)-4-chloroquinolin-6-yl](1-methyl-1H-imidazol-5-yl)[6-(trifluoromethyl)pyridin-3-yl]methanol.TFA]	–
–	–	–	590	COc1nc2ccc(C(O)(c3cnc(C)n3C)c3cnc(C)n3C)cc2c(Cl)c1CNC(=O)CCC(F)(F)F [Example 186, N-((6-(Bis(1,2-dimethyl-1H-imidazol-5-yl)(hydroxy)methyl)-4-chloro-2-methoxyquinolin-3-yl)methyl)-4,4,4-trifluorobutanamide]	–
–	–	–	98	COc1nc2ccc(C(O)(c3ccc(C(F)(F)F)nc3)c3cncn3C)cc2c(C#N)c1CN1CCC(C(F)(F)F)CC1 (single isomer, unassigned) [Example 191b, 6-(Hydroxy(1-methyl-1H-imidazol-5-yl)(6-(trifluoromethyl)pyridin-3-yl)methyl)-2-methoxy-3-((4-(trifluoromethyl)piperidin-1-yl)methyl)quinoline-4-carbonitrile]	–
360	–	–	–	COc1nc2ccc(C(O)(c3ccc(C)nc3C)c3cnnn3C)cc2c(Cl)c1C(=O)N1CCC(C(F)(F)F)CC1 (centres unmarked) [Example 83, (4-Chloro-2-methoxy-3-{[4-(trifluoromethyl)piperidin-1-yl]carbonyl}quinolin-6-yl)(2,6-dimethylpyridin-3-yl)(1-methyl-1H-1,2,3-triazol-5-yl)methanol]	–
–	–	–	3.1	COc1nc2ccc(C(O)(c3ccc(C(F)(F)F)nc3)c3cncn3C)cc2c(C#N)c1CN1CCC(C(F)(F)F)CC1 (single isomer, unassigned) [Example 191c, 6-(Hydroxy(1-methyl-1H-imidazol-5-yl)(6-(trifluoromethyl)pyridin-3-yl)methyl)-2-methoxy-3-((4-(trifluoromethyl)piperidin-1-yl)methyl)quinoline-4-carbonitrile]	–
